Measurements reported in ChEMBL document CHEMBL3739363, “Discovery of bisindolyl-substituted cycloalkane-anellated indoles as novel class of antibacterial agents against S. aureus and MRSA” (2016).
Values after ≈ are worked out from the molar mass of the structure shown.

Experiments:
Type in all cases: functional
Staphylococcus aureus [1] = test: Antibacterial activity against Staphylococcus aureus ATCC 25923 by two-fold serial dilution method
Staphylococcus aureus [2] = test: Antibacterial activity against methicillin-resistant Staphylococcus aureus ATCC 43300 by two-fold serial dilution method
Staphylococcus aureus [3] = test: Antibacterial activity against clinical isolate methicillin-resistant Staphylococcus aureus by two-fold serial dilution method

SMILES | MIC (Staphylococcus aureus [1]) [µg/mL] | MIC (Staphylococcus aureus [2]) [µg/mL] | MIC (Staphylococcus aureus [3]) [µg/mL]
CC1(C)S[C@@H]2[C@H](NC(=O)[C@@H](N)c3ccccc3)C(=O)N2[C@H]1C(=O)OCOC(=O)[C@@H]1N2C(=O)C[C@H]2S(=O)(=O)C1(C)C | 0.78 (≈ 1.31 µM) | 25 (≈ 42 µM) | 25 (≈ 42 µM)
c1ccc2c([C@@H]3CC[C@@H](c4c[nH]c5ccccc45)c4c3[nH]c3ccccc43)c[nH]c2c1 (relative stereo) | 3.12 (≈ 7.78 µM) | 3.12 (≈ 7.78 µM) | 6.25 (≈ 15.6 µM)
c1ccc2c([C@@H]3CCC[C@@H](c4c[nH]c5ccccc45)c4c3[nH]c3ccccc43)c[nH]c2c1 (relative stereo) | 3.12 (≈ 7.52 µM) | 6.25 (≈ 15 µM) | 12.5 (≈ 30.1 µM)
Clc1ccc2c([C@@H]3CC[C@@H](c4c[nH]c5cc(Cl)ccc45)c4c3[nH]c3cc(Cl)ccc43)c[nH]c2c1 (relative stereo) | 12.5 (≈ 24.8 µM) | 12.5 (≈ 24.8 µM) | 12.5 (≈ 24.8 µM)
CC(=O)n1cc([C@H]2CCC[C@@H](c3c[nH]c4ccccc34)c3[nH]c4ccccc4c32)c2ccccc21 (relative stereo) | 25 (≈ 54.6 µM) | 12.5 (≈ 27.3 µM) | 12.5 (≈ 27.3 µM)
Clc1ccc2[nH]cc([C@@H]3CC[C@@H](c4c[nH]c5ccc(Cl)cc45)c4c3[nH]c3ccc(Cl)cc43)c2c1 (relative stereo) | 3.12 (≈ 6.19 µM) | 6.25 (≈ 12.4 µM) | 12.5 (≈ 24.8 µM)
CC(=O)n1cc([C@H]2CC[C@@H](c3cn(C(C)=O)c4ccccc34)c3c2c2ccccc2n3C(C)=O)c2ccccc21 (relative stereo) | 50 (≈ 94.8 µM) | 50 (≈ 94.8 µM) | 50 (≈ 94.8 µM)
Clc1ccc2[nH]cc([C@@H]3CCC[C@@H](c4c[nH]c5ccc(Cl)cc45)c4c3[nH]c3ccc(Cl)cc43)c2c1 (relative stereo) | 3.12 (≈ 6.02 µM) | 6.25 (≈ 12 µM) | 6.25 (≈ 12 µM)
Clc1ccc2c([C@@H]3CCC[C@@H](c4c[nH]c5cc(Cl)ccc45)c4c3[nH]c3cc(Cl)ccc43)c[nH]c2c1 (relative stereo) | 3.12 (≈ 6.02 µM) | 6.25 (≈ 12 µM) | 12.5 (≈ 24.1 µM)
c1ccc2c([C@@H]3CCCC[C@@H](c4c[nH]c5ccccc45)c4c3[nH]c3ccccc43)c[nH]c2c1 (relative stereo) | 3.12 (≈ 7.27 µM) | 6.25 (≈ 14.5 µM) | 12.5 (≈ 29.1 µM)
c1ccc2c([C@@H]3C[C@@H](c4c[nH]c5ccccc45)c4c3[nH]c3ccccc43)c[nH]c2c1 (relative stereo) | 50 (≈ 129 µM) | 12.5 (≈ 32.3 µM) | 12.5 (≈ 32.3 µM)
BrC1[C@@H](c2c[nH]c3ccccc23)c2[nH]c3ccccc3c2[C@@H]1c1c[nH]c2ccccc12 (relative stereo) | 3.12 (≈ 6.7 µM) | 3.12 (≈ 6.7 µM) | 6.25 (≈ 13.4 µM)
CC(=O)n1cc([C@@H]2CC[C@H](c3cn(C(C)=O)c4ccccc34)c3c2[nH]c2ccccc32)c2ccccc21 (relative stereo) | 100 (≈ 206 µM) | 100 (≈ 206 µM) | 100 (≈ 206 µM)
CC(=O)n1cc([C@H]2CCC[C@@H](c3cn(C(=O)O)c4ccccc34)c3[nH]c4ccccc4c32)c2ccccc21 (relative stereo) | 100 (≈ 199 µM) | 50 (≈ 99.7 µM) | 50 (≈ 99.7 µM)
ClC1[C@@H](c2c[nH]c3ccccc23)c2[nH]c3ccccc3c2[C@@H]1c1c[nH]c2ccccc12 (relative stereo) | 3.12 (≈ 7.41 µM) | 3.12 (≈ 7.41 µM) | 6.25 (≈ 14.8 µM)
CC1(C)S[C@@H]2[C@H](NC(=O)[C@H](N)c3ccccc3)C(=O)N2[C@H]1C(=O)O [AMPICILLIN] | 1.56 (≈ 4.46 µM) | 50 (≈ 143 µM) | 50 (≈ 143 µM)
